Laboratory results as given in patent US10865397B2, “Recombinant polynucleotide sequence for producing astaxanthin and uses thereof” (ACADEMIA SINICA, priority 2014, dated 2020).

Tests used:
[1] = tested on: Cz30 strain; experiment: Stress tolerance test: pretreated cells, series dilution on YPG plate
From the text: (§1) For the biorefinery application, plant biomass is one of the most abundant renewable resources on earth and is considered an essential building block for developing a sustainable society. Renewable biological resources from plant can be converted into bioproducts, such as biofuels, biochemicals, biolubricants, and biodegradable materials. To utilize the sugars contained in plant biomass, many available treatment techniques, including acid hydrolysis, steam explosion, ammonia fiber expansion, organosolv, sulfite pretreatment, alkaline wet oxidation, ozone pretreatment, and enzyme treatment, are employed for lignocellulose destruction. Toxins produced during acid and steam pretreatment of lignocellulose cover a large range of substances, such as furfural and hydroxymethylfurfural from hemicellulose and cellulose, alcohols and aldehydes from lignin, and heavy metals from bioreactor. Accordingly, the second stress factor examined was furfural treatment.
(§2) WT and Cz30 strains were further tested for ethanol and butanol treatments.

[2] = tested on: WT strain; experiment: as above; settings: colonies on plate (FIG. 27B)
From the text: as §1, §2

[3] = tested on: Cz30 strain
Description: (§3) After 24 hours, the cells were inoculated into the YPG plate with a series dilution and cultivated for another 48 hours.

[4] = tested on: WT strain; settings: 2, 4, or 6% ethanol in YPG medium, 24 hours
Description: as §3

[5] = 3′S, 3′S compared with the 3′R3′R, 3′R stereoisomer; cited from earlier work

**Q.** For `O=Cc1ccco1` [furfural], which furfural treatment tolerated ([1]; Cz30 strain, colonies on plate (FIG. 27B)) is on record?
**A.** The furfural treatment tolerated was 100 mM.

**Q.** What about the furfural treatment tolerated [2] of the same molecule?
**A.** Its furfural treatment tolerated is 80 mM.

**Q.** With `CC(=O)O[C@@]12CO[C@@H]1C[C@H](O)[C@@]1(C)C(=O)[C@H](O)C3=C(C)[C@@H](O)C[C@@](O)([C@@H](OC(=O)c4ccccc4)[C@H]21)C3(C)C` [10-deacetyl baccatin III] as the molecule, how does the “damage to cultured yeasts compared with ethanol alone” value ([3]; 0.8 mM with 4% ethanol or 1.2 mM with 6% ethanol versus 4% or 6% ethanol, WT and Cz30 (FIG. 29B)) read?
**A.** Its value is “higher degree of damage”.

**Q.** And the “growth in medium containing 10-deacetyl baccatin III” value ([3]; 0.4-1.2 mM in YPG medium, Cz30 versus WT)?
**A.** The value was “Cz30 grew better than WT”.

**Q.** What about the “colony growth on YPG plate after pretreatment” value ([1]; 3.2 mM 10-deacetyl baccatin III in 12% ethanol, 24 hours, then 48 hours on plate, Cz30 versus WT) of the same molecule?
**A.** Its value is “Cz30 colonies grew better than WT”.

**Q.** For `CCO` [ethanol], which “cell growth in presence of ethanol” value ([3]; 2, 4, or 6% ethanol in YPG medium, 24 hours) is on record?
**A.** The value was “weakly affected”.

**Q.** What about the “cell growth in presence of ethanol” value [4] of the same molecule?
**A.** The value was “significantly repressed”.

**Q.** What about the “colony growth on YPG plate after treatment” value [1] of the same molecule?
**A.** Its value is “Only some Cz30 colonies could grow”.

**Q.** With `CC1=C(/C=C/C(C)=C/C=C/C(C)=C/C=C/C=C(C)/C=C/C=C(C)/C=C/C2=C(C)C(=O)[C@@H](O)CC2(C)C)C(C)(C)C[C@H](O)C1=O` (single isomer, unassigned; stereoisomer 3) [3′S, 3′S stereoisomer, 3′S, 3′S-astaxanthin] as the molecule, how does the “antioxidant activity of astaxanthin stereoisomers” value [5] read?
**A.** The value was “higher antioxidant activity”.

**Q.** With `CC(C)CO` [isobutanol] as the molecule, how does the “colony growth on YPG plate after treatment” value [1] read?
**A.** Its value is “Only some Cz30 colonies could grow”.

**Q.** With `CC1=C(/C=C/C(C)=C/C=C/C(C)=C/C=C/C=C(C)/C=C/C=C(C)/C=C/C2=C(C)C(=O)[C@@H](O)CC2(C)C)C(C)(C)C[C@@H](O)C1=O` [3′R3′R, 3′S mesoform, 3′R3′R, 3′S astaxanthin] as the molecule, how does the “antioxidant activity of astaxanthin stereoisomers” value [5] read?
**A.** Its value is “no antioxidant activity”.
